Measurements published in publication PMC12767106, “In Situ Assembly of Transformable Monopeptide on Activated Neutrophils Attenuates NETs‐Induced Hepatocellular Carcinoma Metastasis by Disrupting NE Nuclear Translocation” (Advanced Science, 2025).

Tests used:
[1] = tested on: mice bearing Hepa1-6/luc tumors; assay: Biodistribution by in vivo and ex vivo fluorescence imaging; design: species or system mouse
Description: To further evaluate the tumor tissue accumulation of FTP‐NPs in vivo, we conducted in vivo biodistribution studies using a murine model. For biodistribution studies, mice bearing Hepa1‐6/luc tumors were treated by NFTP‐NPs and FTP‐NPs via tail vein injection and monitored over time using an In‐Vivo system (IVIS, Figure 4a). After 12, 24, 48, and 168 h, tumors and major organs were collected for ex vivo fluorescence imaging (Figure S16a, Supporting Information). The fluorescence signal of the FTP‐NPs group was still detectable in tumor tissues after more than 3 days and lasted up to 7 days. In situ receptor‐mediated transformation of FTP‐NPs to NE‐fibril clusters in the tumor microenvironment may be responsible for the prolonged preservation of the fluorescence signal in FTP‐NPs‐treated mice, even after 7 days. […] The fluorescence signal of tumor tissue in the FTP‐NPs group at 48 h was 7.1‐fold higher than that in the NFTP‐NPs group (Figure S16b, Supporting Information).
(§1) Submitted to Advanced Science
Figure S16. Time-dependent ex vivo fluorescence (FL) images (a) and quantitative analysis (b) of tumor tissues and major organs (heart (H), liver (Li), spleen (Sp), lung (Lu), kidney (K), intestine(I), muscle (M), skin (Sk), and brain (B)) collected at 12, 24, 48, and 168 h post-injection of NFTP-NPs and FTP-NPs.
Figure S17. Gating strategy for T cell analysis. The tumor-bearing mice from each group were euthanized on day 20 post-treatment. Fifty thousand events were collected for each sample in the study. CD45+ cell counts determined the total T cell number, and CD8+ T cells were then gated within CD3+ T lymphocytes.
Figure S18. Corresponding flow cytometric quantification of CD8+T cells (CD45+CD3+CD8+, n = 3). Data are presented as mean ± s.d., n = 3 independent experiments. Statistical significance was calculated by one-way […]

[2] = Particle diameter by DLS and TEM; assay type: physicochemical; conditions: 20 µM NPs in H2O:DMSO 99:1, before interaction with NE
Source text: as §1
We obtained hepatocellular carcinoma (TCGA-LIHC) transcriptomic data from the Cancer Genome Atlas (TCGA) database (https://portal.gdc.cancer.gov/), quantified as transcripts per million (TPM). Tumor samples with complete clinical annotations (overall survival (OS), age, stage, etc.) were retained for further analysis.
Another HCC gene expression profile under the accession number E-TABM-36, containing 44 samples with available survival prognosis information, was obtained from the EBI Array database (https://www.ebi.ac.uk/arrayexpress/) as a validation set. […]
after being further diluted with DMSO (995, 795, 595, 395, 195, 95, 15, and 0 μL). To confirm the generation of NPs, measurements were made of the ultraviolet-visible (UV-vis) absorbance (UV-2600i, Japan) at approximately 410 nm and the fluorescence spectra (Cary 5000, Malaysia) at approximately 635 nm of solutions with different water contents. […]
temperature. […] In addition, the variation of fluorescence emission spectra of PpIX by […]
Pyrene molecules were employed as an indicator to determine the critical aggregation concentration (CAC) of nanoparticles by comparing the fluorescence of their third and first emissive peaks. […] The fluorescence spectra of pyrene (excitation, 335 nm) in different NPs dilutions were recorded. […]

[3] = tail vein injection, IVIS imaging

Row | Substance | fluorescence signal of tumor tissue relative to NFTP-NPs group ([1]; 48 h after tail vein injection, ex vivo imaging) | duration of fluorescence signal in tumor tissues [1, 3] | diameter [2] | fluorescence signal in major organs by 72 h [1, 3]
1 | PpIX-GFFVLK-EAIPMSIPPEVK [FTP-NPs] | 7.1 fold | up to 7 days | 24.27±4.50 nm and ≈ 25 nm | 
2 | PpIX-GGGAAK-EAIPMSIPPEVK [NFTP-NPs, nanoparticles of the non-fibrillar transformable control peptide NFTP] |  |  | 26.13±3.23 nm | essentially undetectable
